# In US7651978B2, “Selective herbicides based on a substituted phenylsulphonylaminocarbonyl-triazolinone” (Arysta LifeScience North America, LLC, priority 1998, dated 2010):
# How the values were obtained:
# Format in all cases: in vivo
# [1] = system: Alopecurus; experiment: Pre-emergence test/greenhouse; settings: 504 h, 250 g ai./ha, after three weeks, read-out: degree of damage, Alopecurus
# Description: (§1) Pre-Emergence Test/Greenhouse Solvent: 5 parts by weight of acetone Emulsifier: 1 part by weight of alkylaryl polyglycol ether To produce a suitable preparation of active compound, 1 part by weight of active compound is mixed with the stated amount of solvent, the stated amount of emulsifier is added and the concentrate is diluted with water to the desired concentration. Seeds of the test plants are sown in normal soil. After about 24 hours, the soil is sprayed with the preparation of active compound such that the particular amount of active compound desired is applied per unit area. The concentration of the spray liquor is chosen so that the particular amount of active compound desired is applied in 500 ml of water per hectare. After three weeks, the degree of damage to the plants is assessed in % damage in comparison to the development of the untreated control. The figures denote: • 0%=no effect (like untreated control) • 100%=total destruction
# [2] = system: Avena; experiment: Pre-emergence test/greenhouse; settings: 504 h, 250 g ai./ha, after three weeks, read-out: degree of damage, Avena
# Description: as §1
# [3] = system: Setaria; experiment: Pre-emergence test/greenhouse; settings: 250 g ai./ha, after three weeks
# Description: as §1
# [4] = system: Alopecurus; experiment: Post-emergence test/greenhouse; settings: 504 h, 250 g ai./ha, after three weeks, read-out: degree of damage, Alopecurus
# Description: (§2) Post-Emergence Test/Greenhouse [table] To produce a suitable preparation of active compound, 1 part by weight of active compound is mixed with the stated amount of solvent, the stated amount of emulsifier is added and the concentrate is diluted with water to the desired concentration. Test plants which have a height of 5-15 cm are sprayed with the preparation of active compound such that the particular amounts of active compound desired are applied per unit area. The concentration of the spray liquor is chosen so that the particular amounts of active compound desired are applied in 500 ml of water/ha. After three weeks, the degree of damage to the plants is assessed in % damage in comparison to the development of the untreated control. The figures denote: • 0%=no effect (like untreated control) • 100%=total destruction
# [5] = system: Avena; experiment: Post-emergence test/greenhouse; settings: 250 g ai./ha, after three weeks
# Description: as §2
# [6] = system: Setaria; experiment: Post-emergence test/greenhouse; settings: 250 g ai./ha, after three weeks
# Description: as §2
Compound,pest or weed control at 250 g/ha [1] [%],pest or weed control at 250 g/ha [2] [%],"degree of damage, Setaria [3] [%]",pest or weed control at 250 g/ha [4] [%],"degree of damage, Avena [5] [%]","degree of damage, Setaria [6] [%]"
"COc1nn(C(=O)NS(=O)(=O)c2ccccc2OC(F)(F)C(F)F)c(=O)n1C [(G), 2-[2-(1,1,2,2-Tetrafluoroethoxy)-phenylsulphonylaminocarbonyl]-4-methyl-5-methoxy-2,4-dihydro-3H-1,2,4-triazol-3-one]",50,0,50,30,0,30
"COc1nn(C(=O)NS(=O)(=O)c2ccccc2OC(F)(F)C(F)(F)F)c(=O)n1C [(H), 2-[2-(Pentafluoroethoxy)-phenylsulphonylaminocarbonyl]-4-methyl-5-methoxy-2,4-dihydro-3H-1,2,4-triazol-3-one]",–,–,–,40,80,20
